According to paper PMC11470957, “Principles of paralog-specific targeted protein degradation engaging the C-degron E3 KLHDC2” (Nature Communications, 2024):
Values joined by “and” are separate entries in the source; they are usually repeats but may differ in a detail not shown here. Equal values may be shown once.

Legend:
[1] = molecular target: T1, KLHDC2^SBD (Homo sapiens, UniProt Q9Y2U9); test: TR-FRET assay, competition with di-Gly degron peptide binding to KLHDC2^SBD; set-up: KLHDC2^SBD (15-361) and its Avi-tagged counterpart were expressed in E. coli Rosetta2 cells; 6XHis-MBP (N, cleaved yes); made in house; host or cells: E. coli Rosetta2
T1 sequence (Q9Y2U9 15-361): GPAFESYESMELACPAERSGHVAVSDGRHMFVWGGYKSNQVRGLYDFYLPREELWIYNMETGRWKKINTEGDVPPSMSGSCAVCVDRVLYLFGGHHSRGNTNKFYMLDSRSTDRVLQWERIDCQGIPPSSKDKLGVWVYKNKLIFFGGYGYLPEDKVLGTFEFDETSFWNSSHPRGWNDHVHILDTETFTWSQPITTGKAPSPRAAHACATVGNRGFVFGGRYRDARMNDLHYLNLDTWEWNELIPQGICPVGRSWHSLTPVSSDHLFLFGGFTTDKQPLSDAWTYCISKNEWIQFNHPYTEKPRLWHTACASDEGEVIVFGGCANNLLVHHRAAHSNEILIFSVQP
Procedure, shortened: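 Compounds displaced AlexaFluor488-RIC8B peptide (20 nM) from biotin-KLHDC2 SBD (50 nM) bound to Tb-streptavidin (2.5 nM). The 520/490 ratio (337 nm excitation) was normalized to buffer-only (100%) and curve-fitted.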

[2] = molecular target: T1, KLHDC2^SBD; test: Surface plasmon resonance binding to KLHDC2; set-up: KLHDC2^SBD (15-361) and its Avi-tagged counterpart were expressed in E. coli Rosetta2 cells; 6XHis-MBP (N, cleaved yes); made in house; host or cells: E. coli Rosetta2; settings: for SPR Response: FigS3d
Procedure: Surface plasmon resonance (SPR) was utilized to determine kinetic parameters and binding affinity of KLHDC2 substrates using a PioneerFE (Sartorius). Experiments were carried out in 20 mM Tris, 200 mM NaCl, 1 mM TCEP, 0.01% Brij35, and 1% DMSO at pH 7.4 as a running buffer with a 100 µL/min flow rate at 20 °C.
The 10xHis-KLHDC2 was immobilized onto a Ni-NTA-coated biosensor chip (HisCap). The chip surface was conditioned using 10 mM HCl, 50 mM NaOH, and 0.1% SDS (50 µL at 100 µL/min) twice, followed by a 100 mM Tris buffer wash (100 µL at 100 µL/min). The surface was then activated using an injection of 0.5 M EDTA (125 µL at 25 µL/min) followed by an injection of 5 mM NiCl2 (125 µL at 25 µL/min). […] Channel 2 was treated identically to channel 3 except for protein loading to be used as a reference channel. […] 100% of the loop was injected with a 300 s dissociation time. All samples were run in triplicate. Data was analyzed using Qdat software and fit to a simple 1-site model.
The SPR experiments were performed to determine the binding affinities (KD) of KLHDC2-SJ46411 and KLHDC2-SJ46418 complexes. All the experiments were performed using a Biacore 1S+ instrument. […] The running buffer consisted of 20 mM Tris pH 7.5, 200 mM NaCl, 1 mM TCEP, 0.01% Brij35, and 4% DMSO. […] In brief, before the immobilization, the sensor chip surface was conditioned by injecting a mixture of (3:1 v/v) 8 M guanidine hydrochloride and 1 M NaOH at a flow rate of 5 μL/min for 2 min for two times. Then, running buffer was injected at a 30 μl/min flow rate for 1 min 3 times. Next, the Biotin CAPture reagent was injected at a flow rate of 2 μl/min for 5 min. Then, biotinylated KLHDC2 was only injected onto the active channel (channel 2).
Sample preparation was carried out precisely the same as SJ46411. All experiments were performed using a multi-cycle analysis method with a 30 μl/min flow rate, 120 S association, and 240 s dissociation time. All data were reference subtracted and corrected for DMSO mismatch. The sensorgrams were analyzed using Biacore insight evaluation software, and KD was determined using the 1:1 steady-state affinity fitting. Finally, all the analyzed data was replotted using GraphPad Prizm 10 software.

[3] = molecular target: T1, KLHDC2^SBD; test: ITC, binary binding of small molecule to KLHDC2^SBD
[4] = cell: ligand, syringe: KLHDC2^SBD

COCCOc1cccc2ccc(-c3nc(CC(=O)NCC(=O)O)cs3)cc12 [SJ46418]
% Inhibition, normalized TR-FRET dose response ([1]; Log Concentration 2.39794): 13.1742% and 22.1732% and 17.7572%
% Inhibition, normalized TR-FRET dose response ([1]; Log Concentration 2.64098): 24.253% and 29.1375% and 24.8323%
% Inhibition, normalized TR-FRET dose response ([1]; Log Concentration 3.273): 57.5653% and 59.1955% and 57.0453%
% Inhibition, normalized TR-FRET dose response ([1]; Log Concentration 3.87506): 85.4899% and 86.6902% and 84.0459%
% Inhibition, normalized TR-FRET dose response ([1]; Log Concentration 4.39794): 85.0979% and 85.1063% and 81.8885%
IC50 ([1]; inhibition of KLHDC2^SBD binding to a di-Gly degron peptide, read-out: TR-FRET IC50): 1100 nM
Raw SPR response ([2]; 0.0976562 uM, time -29 s): 0.0989
Raw SPR response ([2]; 0.0976562 uM, time -29.1 s): 0.1275
Raw SPR response ([2]; 0.0976562 uM, time -29.2 s): 0.1501
Raw SPR response ([2]; 0.0976562 uM, time -29.3 s): 0.2497
Raw SPR response ([2]; 0.195312 uM, time -29 s): 0.0952
Raw SPR response ([2]; 0.195312 uM, time -29.1 s): 0.1196
Raw SPR response ([2]; 0.195312 uM, time -29.2 s): 0.1572
Raw SPR response ([2]; 0.195312 uM, time -29.3 s): 0.2514
Raw SPR response ([2]; 0.390625 uM, time -29 s): 0.1406
Raw SPR response ([2]; 0.390625 uM, time -29.1 s): 0.1812
Raw SPR response ([2]; 0.390625 uM, time -29.2 s): 0.2616
Raw SPR response ([2]; 0.390625 uM, time -29.3 s): 0.3693
Raw SPR response ([2]; 0.78125 uM, time -29 s): 0.1584
Raw SPR response ([2]; 0.78125 uM, time -29.1 s): 0.1946
Raw SPR response ([2]; 0.78125 uM, time -29.2 s): 0.2669
Raw SPR response ([2]; 0.78125 uM, time -29.3 s): 0.3893
Raw SPR response ([2]; 1.5625 uM, time -29 s): 0.1505
Raw SPR response ([2]; 1.5625 uM, time -29.1 s): 0.1878
Raw SPR response ([2]; 1.5625 uM, time -29.2 s): 0.2713
Raw SPR response ([2]; 1.5625 uM, time -29.3 s): 0.3827
Raw SPR response ([2]; 2.34375 uM, time -29 s): 0.1726
Raw SPR response ([2]; 2.34375 uM, time -29.1 s): 0.2365
Raw SPR response ([2]; 2.34375 uM, time -29.2 s): 0.3258
Raw SPR response ([2]; 2.34375 uM, time -29.3 s): 0.5246
Raw SPR response ([2]; 3.125 uM, time -29 s): 0.1584
Raw SPR response ([2]; 3.125 uM, time -29.1 s): 0.2098
Raw SPR response ([2]; 3.125 uM, time -29.2 s): 0.2855
Raw SPR response ([2]; 3.125 uM, time -29.3 s): 0.3398
Raw SPR response ([2]; 4.6875 uM, time -29 s): 0.1506
Raw SPR response ([2]; 4.6875 uM, time -29.1 s): 0.2195
Raw SPR response ([2]; 4.6875 uM, time -29.2 s): 0.3095
Raw SPR response ([2]; 4.6875 uM, time -29.3 s): 0.4038
Raw SPR response ([2]; 12.5 uM, time -29 s): 0.1017
Raw SPR response ([2]; 12.5 uM, time -29.1 s): 0.1107
Raw SPR response ([2]; 12.5 uM, time -29.2 s): 0.1281
Raw SPR response ([2]; 12.5 uM, time -29.3 s): 0.1417
Raw SPR data, fit ([2]; 0.09765625 Fit, time -29 s): -0.002337
Raw SPR data, fit ([2]; 0.09765625 Fit, time -29.1 s): -0.002345
Raw SPR data, fit ([2]; 0.09765625 Fit, time -29.2 s): -0.002354
Raw SPR data, fit ([2]; 0.09765625 Fit, time -29.3 s): -0.002362
Raw SPR data, fit ([2]; 0.1953125Fit uM, time -29 s): 0.003849
Raw SPR data, fit ([2]; 0.1953125Fit uM, time -29.1 s): 0.003863
Raw SPR data, fit ([2]; 0.1953125Fit uM, time -29.2 s): 0.003876
Raw SPR data, fit ([2]; 0.1953125Fit uM, time -29.3 s): 0.003889
Raw SPR data, fit ([2]; 0.390625fit, time -29 s): 0.007264
Raw SPR data, fit ([2]; 0.390625fit, time -29.1 s): 0.007289
Raw SPR data, fit ([2]; 0.390625fit, time -29.2 s): 0.007315
Raw SPR data, fit ([2]; 0.390625fit, time -29.3 s): 0.00734
Raw SPR data, fit ([2]; 0.78125 fit, time -29 s): 0.01901
Raw SPR data, fit ([2]; 0.78125 fit, time -29.1 s): 0.01908
Raw SPR data, fit ([2]; 0.78125 fit, time -29.2 s): 0.01915
Raw SPR data, fit ([2]; 0.78125 fit, time -29.3 s): 0.01921
Raw SPR data, fit ([2]; 1.5625 fit, time -29 s): 0.01693
Raw SPR data, fit ([2]; 1.5625 fit, time -29.1 s): 0.01699
Raw SPR data, fit ([2]; 1.5625 fit, time -29.2 s): 0.01704
Raw SPR data, fit ([2]; 1.5625 fit, time -29.3 s): 0.0171
Raw SPR data, fit ([2]; 2.34375fit, time -29 s): 0.02325
Raw SPR data, fit ([2]; 2.34375fit, time -29.1 s): 0.02333
Raw SPR data, fit ([2]; 2.34375fit, time -29.2 s): 0.02341
Raw SPR data, fit ([2]; 2.34375fit, time -29.3 s): 0.0235
Raw SPR data, fit ([2]; 3.125 fit, time -29 s): 0.02052
Raw SPR data, fit ([2]; 3.125 fit, time -29.1 s): 0.02059
Raw SPR data, fit ([2]; 3.125 fit, time -29.2 s): 0.02066
Raw SPR data, fit ([2]; 3.125 fit, time -29.3 s): 0.02074
Raw SPR data, fit ([2]; 4.6875 fit, time -29 s): 0.02316
Raw SPR data, fit ([2]; 4.6875 fit, time -29.1 s): 0.02324
Raw SPR data, fit ([2]; 4.6875 fit, time -29.2 s): 0.02332
Raw SPR data, fit ([2]; 4.6875 fit, time -29.3 s): 0.0234
Raw SPR data, fit ([2]; 12.5 fit, time -29 s): 0.01922
Raw SPR data, fit ([2]; 12.5 fit, time -29.1 s): 0.01929
Raw SPR data, fit ([2]; 12.5 fit, time -29.2 s): 0.01935
Raw SPR data, fit ([2]; 12.5 fit, time -29.3 s): 0.01942
SPR Response ([2]; analyte 0.0977 μM): 0.48 RU
SPR Response ([2]; analyte 0.195 μM): 0.7348 RU
SPR Response ([2]; analyte 0.391 μM): 1.4491 RU
SPR Response ([2]; analyte 0.781 μM): 2.3401 RU
SPR Response ([2]; analyte 1.56 μM): 3.3797 RU
SPR Response ([2]; analyte 2.34 μM): 3.8756 RU
SPR Response ([2]; analyte 4.69 μM): 4.4852 RU
SPR Response ([2]; analyte 12.5 μM): 5.3052 RU
SPR Rmax ([2]; n=1): 5.70 +/- 0.20
Kd ([2]; read-out: SPR Kd): 1000 nM and 983 nM
Kd ([3]; ITC Kd, as printed in Fig 2d/3b): 210 nM
Kd ([3]; ITC Kd, cell: ligand, syringe: KLHDC2^SBD): 216 ± 17 nM
Kd ([3]; Kd, ITC, syringe KLHDC2, cell compound, Rep1, Rep2): 205 nM and 229 nM
ITC -TΔS [3, 4]: -0.94 +/- 0.02 kcal/mol-1
ITC stoichiometry of binding N [3, 4]: 0.9
ITC ΔG [3, 4]: -8.82 +/- 0.04 kcal/mol-1
ITC ΔH [3, 4]: -7.88 +/- 0.07 kcal/mol-1
